Counter-ions that a name gives are not always drawn. Like-named read-outs stand apart in the source and are kept apart here.
Key:
[1] = target: Human MET (residues 956-1390) (Homo sapiens (Human), UniProt P08581); assay: Human Met kinase assay, HTRF KinEase (Example D-2); type: biochemical; settings: read-out: c-Met IC50
Procedure, shortened: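 MET kinase domain (956-1390), 0.1 ng/well, in buffer with 5 mM MgCl2, 1 mM DTT and 1 mM MnCl2, phosphorylated a biotinylated peptide at ATP Km for 40 min at RT; 10 concentrations, 3% DMSO final. EDTA-stopped HTRF read after 60 min; IC50 from a 4-parameter logistic fit.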

[2] = target: Human KDR (residues 790-1356) (Homo sapiens (Human), UniProt P35968); assay: Human KDR kinase assay, HTRF KinEase (Example B-2); type: biochemical
Procedure, shortened: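 Human KDR residues 790-1356 (0.1 ng/well) in buffer with 5 mM MgCl2, 1 mM MnCl2, 1 mM DTT, biotinylated peptide substrate, ATP at Km (4.0 μM), 3% DMSO, 10 compound concentrations; 40 min, room temperature. EDTA stop, streptavidin-XL665/Eu-TK antibody HTRF read 665/620 nm; 4-parameter IC50.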

[3] = target: Met (phospho-Met, HGF-stimulated PC-3 prostate cancer cells) (Homo sapiens (Human), UniProt P08581); assay: Met autophosphorylation ELISA in PC-3 cells (Example F); type: cell-based; settings: cellular activity; Met autophosphorylation ELISA in PC-3 cells; read-out: c-Met IC50
Procedure, shortened: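 Compounds were tested on HGF-stimulated PC-3 cells. After 24 h culture and 3 h serum starvation, cells got compound for 1 h and 100 ng/mL HGF for 10 min, and Met tyrosine phosphorylation was measured by ELISA.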

[4] = target: Mer (phospho-Mer, MERTK-transfected 293A cells) (Homo sapiens (Human), UniProt Q12866); assay: Mer autophosphorylation ELISA in transient transfected 293A cells (Example H); type: cell-based; settings: cellular activity; Mer autophosphorylation ELISA in transient transfected 293A cells
Procedure, shortened: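 293A cells transiently transfected with human MERTK were treated 1 h in serum-free medium with an 8-point compound dilution (0.3% DMSO final). Lysates were assayed by phospho-Mer sandwich ELISA against a phospho-Mer standard; IC50 came from a 4-parameter logistic fit, normalised to DMSO (100%) and reference-inhibitor (0%) controls.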

[5] = protocol of Example D-2 (other compounds)
[6] = protocol of Example B-2 (other compounds)

Sequence of Met (phospho-Met, HGF-stimulated PC-3 prostate cancer cells) (P08581 25-1390): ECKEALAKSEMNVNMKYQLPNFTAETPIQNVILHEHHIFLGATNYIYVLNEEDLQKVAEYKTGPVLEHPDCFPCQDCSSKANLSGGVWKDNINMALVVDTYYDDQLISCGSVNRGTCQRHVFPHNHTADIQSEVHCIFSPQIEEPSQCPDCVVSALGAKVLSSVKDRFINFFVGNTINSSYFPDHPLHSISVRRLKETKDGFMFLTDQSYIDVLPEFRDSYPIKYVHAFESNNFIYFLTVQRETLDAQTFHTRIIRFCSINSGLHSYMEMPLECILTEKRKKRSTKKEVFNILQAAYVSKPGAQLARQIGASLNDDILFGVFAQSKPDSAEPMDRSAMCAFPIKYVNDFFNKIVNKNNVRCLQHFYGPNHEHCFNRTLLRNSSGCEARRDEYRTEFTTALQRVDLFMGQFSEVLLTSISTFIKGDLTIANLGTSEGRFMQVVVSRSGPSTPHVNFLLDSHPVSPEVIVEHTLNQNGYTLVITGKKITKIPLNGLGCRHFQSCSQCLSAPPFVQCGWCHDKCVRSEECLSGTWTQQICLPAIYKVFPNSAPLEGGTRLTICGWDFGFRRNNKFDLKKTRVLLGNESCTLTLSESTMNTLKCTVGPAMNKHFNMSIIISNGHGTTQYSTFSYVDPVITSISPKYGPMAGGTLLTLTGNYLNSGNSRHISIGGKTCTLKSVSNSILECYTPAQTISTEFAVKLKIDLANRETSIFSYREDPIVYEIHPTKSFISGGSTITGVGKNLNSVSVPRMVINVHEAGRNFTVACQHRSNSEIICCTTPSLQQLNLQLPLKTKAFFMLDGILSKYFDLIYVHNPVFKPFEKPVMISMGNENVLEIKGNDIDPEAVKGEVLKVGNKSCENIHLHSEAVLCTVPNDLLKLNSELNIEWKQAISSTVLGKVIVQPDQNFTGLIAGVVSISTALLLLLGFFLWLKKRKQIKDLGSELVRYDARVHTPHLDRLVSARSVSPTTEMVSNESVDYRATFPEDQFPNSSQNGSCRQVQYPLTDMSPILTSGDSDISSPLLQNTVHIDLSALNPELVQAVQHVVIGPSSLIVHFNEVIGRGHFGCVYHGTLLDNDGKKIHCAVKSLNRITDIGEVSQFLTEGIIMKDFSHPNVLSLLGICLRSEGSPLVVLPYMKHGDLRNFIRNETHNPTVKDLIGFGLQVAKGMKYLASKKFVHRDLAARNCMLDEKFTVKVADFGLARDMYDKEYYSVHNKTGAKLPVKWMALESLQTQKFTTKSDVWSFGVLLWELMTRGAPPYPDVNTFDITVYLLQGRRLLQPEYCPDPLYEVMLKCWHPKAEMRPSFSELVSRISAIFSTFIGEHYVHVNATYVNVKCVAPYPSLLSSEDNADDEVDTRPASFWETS
Sequence of Human KDR (residues 790-1356) (P35968 790-1356): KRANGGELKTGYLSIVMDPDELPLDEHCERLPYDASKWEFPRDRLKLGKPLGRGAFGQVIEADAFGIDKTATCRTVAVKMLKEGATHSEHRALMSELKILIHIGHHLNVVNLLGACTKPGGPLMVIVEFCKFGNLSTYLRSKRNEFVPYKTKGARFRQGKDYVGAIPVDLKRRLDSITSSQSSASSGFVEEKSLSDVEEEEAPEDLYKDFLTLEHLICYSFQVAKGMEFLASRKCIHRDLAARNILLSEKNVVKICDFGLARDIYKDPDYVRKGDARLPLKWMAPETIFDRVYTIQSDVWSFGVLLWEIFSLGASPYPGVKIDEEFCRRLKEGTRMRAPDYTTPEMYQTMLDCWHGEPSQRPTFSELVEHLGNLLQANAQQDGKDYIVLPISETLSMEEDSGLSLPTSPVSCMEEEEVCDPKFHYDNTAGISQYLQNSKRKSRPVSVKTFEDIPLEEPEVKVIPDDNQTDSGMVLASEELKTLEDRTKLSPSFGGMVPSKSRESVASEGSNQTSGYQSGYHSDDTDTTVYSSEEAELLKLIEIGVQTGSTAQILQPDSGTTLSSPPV
Sequence of Human MET (residues 956-1390) (P08581 956-1390): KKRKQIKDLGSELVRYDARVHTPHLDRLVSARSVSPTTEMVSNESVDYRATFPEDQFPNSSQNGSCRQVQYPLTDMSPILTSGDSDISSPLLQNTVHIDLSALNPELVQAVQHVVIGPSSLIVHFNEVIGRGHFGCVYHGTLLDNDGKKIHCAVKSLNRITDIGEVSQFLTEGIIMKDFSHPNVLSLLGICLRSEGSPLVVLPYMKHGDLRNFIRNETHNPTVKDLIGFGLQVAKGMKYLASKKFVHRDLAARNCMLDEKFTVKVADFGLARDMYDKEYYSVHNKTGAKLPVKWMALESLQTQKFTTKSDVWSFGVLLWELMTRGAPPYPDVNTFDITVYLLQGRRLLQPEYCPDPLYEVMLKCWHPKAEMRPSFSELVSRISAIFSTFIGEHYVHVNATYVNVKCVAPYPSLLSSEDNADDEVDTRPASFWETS
Sequence of Mer (phospho-Mer, MERTK-transfected 293A cells) (Q12866 21-999): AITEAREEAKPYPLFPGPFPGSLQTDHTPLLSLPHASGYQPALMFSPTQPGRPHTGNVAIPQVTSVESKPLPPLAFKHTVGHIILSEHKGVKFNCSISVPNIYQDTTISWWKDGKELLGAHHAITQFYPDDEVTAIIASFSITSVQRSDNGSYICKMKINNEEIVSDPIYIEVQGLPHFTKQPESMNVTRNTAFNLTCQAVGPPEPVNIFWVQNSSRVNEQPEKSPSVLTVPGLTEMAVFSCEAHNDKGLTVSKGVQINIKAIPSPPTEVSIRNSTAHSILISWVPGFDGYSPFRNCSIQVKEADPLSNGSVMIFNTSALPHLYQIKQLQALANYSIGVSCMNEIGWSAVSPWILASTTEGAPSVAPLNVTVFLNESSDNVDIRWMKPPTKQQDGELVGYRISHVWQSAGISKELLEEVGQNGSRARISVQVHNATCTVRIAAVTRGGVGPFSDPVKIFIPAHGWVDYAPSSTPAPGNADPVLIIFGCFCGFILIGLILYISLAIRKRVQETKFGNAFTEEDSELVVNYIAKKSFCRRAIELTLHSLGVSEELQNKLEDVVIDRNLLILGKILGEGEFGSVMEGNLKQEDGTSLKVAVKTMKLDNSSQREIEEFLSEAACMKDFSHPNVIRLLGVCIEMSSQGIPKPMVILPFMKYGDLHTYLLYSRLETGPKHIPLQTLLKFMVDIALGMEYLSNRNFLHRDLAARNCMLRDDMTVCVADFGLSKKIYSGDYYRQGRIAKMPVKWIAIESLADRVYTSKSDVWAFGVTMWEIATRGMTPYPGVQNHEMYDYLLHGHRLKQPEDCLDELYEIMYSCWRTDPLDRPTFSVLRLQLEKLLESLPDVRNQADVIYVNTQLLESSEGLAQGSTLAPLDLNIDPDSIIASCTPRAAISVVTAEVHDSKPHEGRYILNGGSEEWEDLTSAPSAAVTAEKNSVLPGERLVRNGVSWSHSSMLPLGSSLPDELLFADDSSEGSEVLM

| SMILES | IC50 [1, 5] [µM] | IC50 [2, 6] [µM] | IC50 [3] [µM] | IC50 [4] [µM] | IC50 ([1]; protocol of Example D-2) [µM] | IC50 ([2]; protocol of Example B-2) [µM] |
| --- | --- | --- | --- | --- | --- | --- |
| COc1cc2nccc(Oc3ccc(NC(=O)c4cn(C(C)C)cc(-c5ccc(F)cc5)c4=O)cc3)c2nc1OC [Compound 122, N-[4-[(6,7-Dimethoxy-1,5-naphthyridin-4-yl)oxy]phenyl]-5-(4-fluorophenyl)-4-oxo-1-propan-2-ylpyridine-3-carboxamide] | < 0.1 | < 0.1 | < 0.1 | < 0.1 |  |  |
| COc1ccc2nccc(Oc3ccc(NC(=O)c4cnc(C)c(-c5ccc(F)cc5)c4O)cc3F)c2n1 [Compound 172, N-[3-Fluoro-4-[(6-methoxy-1,5-naphthyridin-4-yl)oxy]phenyl]-5-(4-fluorophenyl)-4-hydroxy-6-methylpyridine-3-carboxamide] | < 0.1 | 0.1 to 0.3 | < 0.1 | < 0.1 |  |  |
| Cc1nc2c(Oc3ccc(NC(=O)c4cnc(C)c(-c5ccc(F)cc5)c4O)cc3)ccnc2cc1-c1cccnc1 [Compound 616, 5-(4-Fluorophenyl)-4-hydroxy-6-methyl-N-[4-[(6-methyl-7-pyridin-3-yl-1,5-naphthyridin-4-yl)oxy]phenyl]pyridine-3-carboxamide hydrochloride] |  |  | > 0.3 | 0.1 to 0.3 | < 0.1 | > 0.3 |
| Cc1ncc(C(=O)Nc2ccc(Oc3ccnc4cc(C(C)C)cnc34)cc2)c(O)c1-c1ccc(F)cc1 [Compound 594, 5-(4-Fluorophenyl)-4-hydroxy-6-methyl-N-[4-[(7-propan-2-yl-1,5-naphthyridin-4-yl)oxy]phenyl]pyridine-3-carboxamide] |  |  | < 0.1 | < 0.1 | < 0.1 | > 0.3 |
| COc1cc2nccc(Oc3ccc(NC(=O)c4cn(OC)cc(-c5ccc(F)cc5)c4=O)cc3F)c2nc1OC [Compound 126, N-[4-[(6,7-Dimethoxy-1,5-naphthyridin-4-yl)oxy]-3-fluorophenyl]-5-(4-fluorophenyl)-1-methoxy-4-oxopyridine-3-carboxamide] | < 0.1 | < 0.1 | < 0.1 | < 0.1 |  |  |
| COc1cc2nccc(Oc3ccc(NC(=O)c4cnc(C)c(-c5ccc(F)cc5)c4O)cc3F)c2nc1Br [Compound 142, N-[4-[(6-Bromo-7-methoxy-1,5-naphthyridin-4-yl)oxy]-3-fluorophenyl]-5-(4-fluorophenyl)-4-hydroxy-6-methylpyridine-3-carboxamide] | < 0.1 | < 0.1 | < 0.1 | < 0.1 |  |  |
| COc1cc2nccc(Oc3ccc(NC(=O)c4cnc(C(C)(C)C)c(-c5ccc(F)cc5)c4O)cc3F)c2nc1OC [Compound 155, 6-tert-Butyl-N-[4-[(6,7-dimethoxy-1,5-naphthyridin-4-yl)oxy]-3-fluorophenyl]-5-(4-fluorophenyl)-4-hydroxypyridine-3-carboxamide] | < 0.1 | > 0.3 | 0.1 to 0.3 | < 0.1 |  |  |
| Cc1nc2c(Oc3ccc(NC(=O)c4cnc(C)c(-c5ccc(F)cc5)c4O)cc3F)ccnc2cc1-c1cccnc1 [Compound 618, N-[3-Fluoro-4-[(6-methyl-7-pyridin-3-yl-1,5-naphthyridin-4-yl)oxy]phenyl]-5-(4-fluorophenyl)-4-hydroxy-6-methylpyridine-3-carboxamide hydrochloride] |  |  | 0.1 to 0.3 | < 0.1 | < 0.1 | 0.1 to 0.3 |
| Cc1ncc(C(=O)Nc2ccc(Oc3ccnc4cnc(Cl)cc34)c(F)c2)c(O)c1-c1ccc(F)cc1 [Compound 641, N-[4-[(6-chloro-1,7-naphthyridin-4-yl)oxy]-3-fluorophenyl]-5-(4-fluorophenyl)-4-hydroxy-6-methylpyridine-3-carboxamide] |  |  | < 0.1 | < 0.1 | 0.1 to 0.3 | > 0.3 |
| COc1cc2ncnc(Oc3ccc(NC(=O)c4cn(C(C)C)cc(-c5ccc(F)cc5)c4=O)cc3F)c2nc1OC [Compound 636, N-[4-(6,7-dimethoxypyrido[3,2-d]pyrimidin-4-yl)oxy-3-fluorophenyl]-5-(4-fluorophenyl)-4-oxo-1-propan-2-ylpyridine-3-carboxamide] |  |  | < 0.1 | < 0.1 | < 0.1 | < 0.1 |
| COc1cnc2c(Oc3ccc(NC(=O)c4cncc(-c5ccc(F)cc5)c4O)cc3F)ccnc2c1 [Compound 120, N-[3-Fluoro-4-[(7-methoxy-1,5-naphthyridin-4-yl)oxy]phenyl]-5-(4-fluorophenyl)-4-hydroxypyridine-3-carboxamide] | < 0.1 | < 0.1 | < 0.1 | < 0.1 |  |  |

The next lines start with the values.

| IC50 [1, 5] [µM] | IC50 [2, 6] [µM] | IC50 [3] [µM] | IC50 [4] [µM] | IC50 ([1]; protocol of Example D-2) [µM] | IC50 ([2]; protocol of Example B-2) [µM] | SMILES |
| --- | --- | --- | --- | --- | --- | --- |
| < 0.1 | > 0.3 | < 0.1 | < 0.1 |  |  | CCn1cc(C(=O)Nc2ccc(Oc3ccnc4cc(OC)cnc34)c(F)c2)c(=O)c(-c2ccc(F)cc2)c1C [Compound 164, 1-Ethyl-N-[3-fluoro-4-[(7-methoxy-1,5-naphthyridin-4-yl)oxy]phenyl]-5-(4-fluorophenyl)-6-methyl-4-oxopyridine-3-carboxamide] |
|  |  | > 0.3 | > 0.3 | < 0.1 | 0.1 to 0.3 | CNC(=O)c1cnc2c(Oc3ccc(NC(=O)c4cnc(C)c(-c5ccc(F)cc5)c4O)cc3F)ccnc2c1 [Compound 578, 8-[2-Fluoro-4-[[5-(4-fluorophenyl)-4-hydroxy-6-methylpyridine-3-carbonyl]amino]phenoxy]-N-methyl-1,5-naphthyridine-3-carboxamide] |
| < 0.1 | > 0.3 | 0.1 to 0.3 | < 0.1 |  |  | Cc1c(-c2ccc(F)cc2)c(=O)c(C(=O)Nc2ccc(Oc3ccnc4cc(F)cnc34)c(F)c2)cn1C(C)C [Compound 162, N-[3-Fluoro-4-[(7-fluoro-1,5-naphthyridin-4-yl)oxy]phenyl]-5-(4-fluorophenyl)-6-methyl-4-oxo-1-propan-2-ylpyridine-3-carboxamide] |
|  |  | < 0.1 | < 0.1 | < 0.1 | < 0.1 | CNc1nc2c(Oc3ccc(NC(=O)c4cn(C(C)C)c(C)c(-c5ccc(F)cc5)c4=O)cc3F)ccnc2cc1OC [Compound 582, N-[3-Fluoro-4-[[7-methoxy-6-(methylamino)-1,5-naphthyridin-4-yl]oxy]phenyl]-5-(4-fluorophenyl)-6-methyl-4-oxo-1-propan-2-ylpyridine-3-carboxamide] |
| < 0.1 | > 0.3 | < 0.1 | < 0.1 |  |  | COc1cnc2c(Oc3ccc(NC(=O)c4cn(C(C)(C)C)c(C)c(-c5ccc(F)cc5)c4=O)cc3F)ccnc2c1 [Compound 166, 1-tert-Butyl-N-[3-fluoro-4-[(7-methoxy-1,5-naphthyridin-4-yl)oxy]phenyl]-5-(4-fluorophenyl)-6-methyl-4-oxopyridine-3-carboxamide] |
| < 0.1 | > 0.3 | < 0.1 | < 0.1 |  |  | Cc1nc2c(Oc3ccc(NC(=O)c4cn(C(C)C)c(C)c(-c5ccc(F)cc5)c4=O)cc3F)ccnc2cc1Br [Compound 153, N-[4-[(7-Bromo-6-methyl-1,5-naphthyridin-4-yl)oxy]-3-fluorophenyl]-5-(4-fluorophenyl)-6-methyl-4-oxo-1-propan-2-ylpyridine-3-carboxamide] |
| < 0.1 | > 0.3 | < 0.1 | < 0.1 |  |  | COc1cc2nccc(Oc3ccc(NC(=O)c4cn(C(C)C)c(C)c(-c5ccc(F)cc5)c4=O)cc3F)c2nc1Br [Compound 143, N-[4-[(6-Bromo-7-methoxy-1,5-naphthyridin-4-yl)oxy]-3-fluorophenyl]-5-(4-fluorophenyl)-6-methyl-4-oxo-1-propan-2-ylpyridine-3-carboxamide] |
|  |  | < 0.1 | < 0.1 | < 0.1 | > 0.3 | Cc1nc2c(Oc3ccc(NC(=O)c4cn(C(C)C)c(C)c(-c5ccc(F)cc5)c4=O)cc3)ccnc2cc1-c1cccnc1 [Compound 613, 5-(4-Fluorophenyl)-6-methyl-N-[4-[(6-methyl-7-pyridin-3-yl-1,5-naphthyridin-4-yl)oxy]phenyl]-4-oxo-1-propan-2-ylpyridine-3-carboxamide hydrochloride] |
| < 0.1 | > 0.3 | < 0.1 | < 0.1 |  |  | COc1cnc2c(Oc3ccc(NC(=O)c4cn(C(C)C)cc(-c5ccc(F)cc5)c4=O)cc3F)ccnc2c1 [Compound 123, N-[3-Fluoro-4-[(7-methoxy-1,5-naphthyridin-4-yl)oxy]phenyl]-5-(4-fluorophenyl)-4-oxo-1-propan-2-ylpyridine-3-carboxamide] |

From patent US12371428B2 (Exelixis, Inc., priority 2019, dated 2025)
